Values after ≈ are worked out from the molar mass of the structure shown.
Columns and labels:
Klebsiella pneumoniae = assay: Antibacterial activity against Klebsiella pneumoniae assessed as inhibition of bacterial growth by microplate reader analysis; type: functional
Acinetobacter baumannii = assay: Antibacterial activity against Acinetobacter baumannii assessed as inhibition of bacterial growth by microplate reader analysis; type: functional
Enterobacter sp. = assay: Antibacterial activity against Enterobacter sp. assessed as inhibition of bacterial growth by microplate reader analysis; type: functional
Staphylococcus aureus [1] = assay: Antibacterial activity against Staphylococcus aureus assessed as inhibition of bacterial growth by microplate reader analysis; type: functional
Enterococcus faecium = assay: Antibacterial activity against Enterococcus faecium assessed as inhibition of bacterial growth by microplate reader analysis; type: functional
Pseudomonas aeruginosa [2] = assay: Antibacterial activity against Pseudomonas aeruginosa assessed as inhibition of bacterial growth by microplate reader analysis; type: functional
Staphylococcus aureus [3] = assay: Antibacterial activity against methicillin resistant Staphylococcus aureus R3890 assessed as inhibition of bacterial growth incubated for 24 hrs by broth microdilution method; type: functional
Staphylococcus aureus [4] = assay: Antibacterial activity against methicillin resistant Staphylococcus aureus ATCC 33591 assessed as inhibition of bacterial growth incubated for 24 hrs by broth microdilution method; type: functional
Staphylococcus aureus [5] = assay: Antibacterial activity against methicillin resistant Staphylococcus aureus R3889 assessed as inhibition of bacterial growth incubated for 24 hrs by broth microdilution method; type: functional
Streptococcus mutans = assay: Antibacterial activity against wild type planktonic Streptococcus mutans UA159 assessed as inhibition of bacterial growth incubated for 20 to 24 hrs; type: functional; settings: time 20-24 hrs
Staphylococcus aureus [6] = assay: Antibacterial activity against Staphylococcus aureus assessed as inhibition of bacterial growth; type: functional
Pseudomonas aeruginosa [7] = assay: Antibacterial activity against Pseudomonas aeruginosa assessed as inhibition of bacterial growth; type: functional
Staphylococcus aureus [8] = assay: Antimicrobial activity against methicillin resistant Staphylococcus aureus MW2 BAA-1707 persisters assessed as inhibition of bacterial colonies; type: functional
[9] = Hemolytic activity in human erythrocytes assessed as hemolysis incubated for 1 hrs; type: toxicity, cell-based, Erythrocyte
Staphylococcus aureus [10] = assay: Antimicrobial activity against methicillin resistant Staphylococcus aureus assessed as inhibition of bacterial growth by CLSI protocol based microdilution method; type: functional
Pseudomonas aeruginosa [11] = assay: Antibacterial activity against Pseudomonas aeruginosa persistent cells assessed as fold reduction in bacterial cell in the presence of ofloxacin relative to ofloxacin alone; type: functional
Staphylococcus aureus [12] = assay: Antibacterial activity against Staphylococcus aureus ATCC 9144 assessed as inhibition of bacterial growth incubated for 24 hrs; type: functional
Staphylococcus aureus [13] = assay: Antimicrobial activity against vancomycin resistant Staphylococcus aureus assessed as inhibition of bacterial growth by CLSI protocol based microdilution method; type: functional
[14] = Cytotoxicity against human hepatocytes assessed as reduction in cell growth by WST-1 assay; type: toxicity, cell-based, Hepatocyte; settings: read-out: LC50 (the source's name)
Staphylococcus aureus [15] = assay: Antibacterial activity against methicillin resistant Staphylococcus aureus MW2 assessed as inhibition of bacterial growth measured after 2 hrs; type: functional
Pseudomonas aeruginosa [16] = assay: Antibacterial activity against Pseudomonas aeruginosa persistent cells assessed as fold reduction in bacterial cell at 68 ug/ml in the presence of ofloxacin relative to ofloxacin alone; type: functional; settings: dose 68 µg/ml

SMILES: Nc1nc(N)c2c(ccc3c2ccn3Cc2ccc(-c3ccccc3)cc2)n1
- MIC (Klebsiella pneumoniae): 0.02 µg/mL (≈ 0.0547 µM)
- MIC (Acinetobacter baumannii): 0.02 µg/mL (≈ 0.0547 µM)
- MIC (Enterobacter sp.): 0.02 µg/mL (≈ 0.0547 µM)
- MIC (Staphylococcus aureus [1]): 0.02 µg/mL (≈ 0.0547 µM)
- MIC (Enterococcus faecium): 0.02 µg/mL (≈ 0.0547 µM)
- MIC (Pseudomonas aeruginosa [2]): 0.02 µg/mL (≈ 0.0547 µM)

SMILES: CCCCCCCCCCN(Cc1cccc2ccccc12)C(=O)[C@@H](N)CCCCN
- MIC (Staphylococcus aureus [3]): 4.1 µg/mL (≈ 9.63 µM)
- MIC (Staphylococcus aureus [4]): 4.1 µg/mL (≈ 9.63 µM)
- MIC (Staphylococcus aureus [5]): 4.1 µg/mL (≈ 9.63 µM)

SMILES: C=CCc1ccc(O)c(-c2ccc(O)c(CC=C)c2)c1 [HONOKIOL]
- MIC (Streptococcus mutans): 66.6 µg/mL (≈ 250 µM)

SMILES: CCC(C)NCC(O)Cn1c2ccc(Cl)cc2c2cc(Cl)ccc21 (configuration not stated)
- MIC (Staphylococcus aureus [6]): 4.63 µg/mL (≈ 12.7 µM)
- MIC (Pseudomonas aeruginosa [7]): 4.63 µg/mL (≈ 12.7 µM)

SMILES: O=C(O)c1c(Oc2ccc(I)cc2)c2cc(Cl)ccc2n1Cc1ccc(Cl)cc1
- Activity (Staphylococcus aureus [8]): 16 µg/mL
- HC50 at 1 h [9]: > 64 µg/mL
- MIC (Staphylococcus aureus [10]): 1 µg/mL (≈ 1.86 µM)

SMILES: O[C@H](CNCc1ccccc1)COc1ccc(Cl)cc1Cl
- fold change (FC) (Pseudomonas aeruginosa [11]): >2000

SMILES: O=C(O)c1c(Sc2ccccc2)c2cc(Cl)ccc2n1Cc1ccc(Cl)cc1
- Activity (Staphylococcus aureus [8]): 64 µg/mL
- HC50 at 1 h [9]: 47 µg/mL
- MIC (Staphylococcus aureus [10]): 4 µg/mL (≈ 9.34 µM)

SMILES: Oc1c(Cl)cc(Cl)cc1Sc1cc(Cl)cc(Cl)c1O [BITHIONOL]
- MIC50 (Staphylococcus aureus [12]): 8 µM (≈ 2.85 µg/mL)
- MIC (Staphylococcus aureus [13]): 0.5 µg/mL (≈ 1.4 µM)

SMILES: O=C(O)c1ccc2cc(-c3ccc(O)c(C45CC6CC(CC(C6)C4)C5)c3)ccc2c1 [O-DEMETHYLATED ADAPALENE]
- HC50 at 1 h [9]: 32 µg/mL
- CC50 [14]: 20 µg/mL (≈ 50.2 µM)
- MIC (Staphylococcus aureus [15]): 1 µg/mL (≈ 2.51 µM)

SMILES: O[C@H](CNCCc1ccc(Cl)cc1Cl)COc1ccccc1
- fold change (FC) (Pseudomonas aeruginosa [16]): 7200

SMILES: CC(C)(C)c1ccc(CCc2ccc(C(C)(C)C)c(O)c2)cc1O
- MIC (Streptococcus mutans): 0.65 µg/mL (≈ 1.99 µM)

SMILES: CC(C)c1ccc(Cn2ccc3c4c(N)nc(NC5CC5)nc4ccc32)cc1
- MIC (Klebsiella pneumoniae): 2 µg/mL (≈ 5.38 µM)
- MIC (Acinetobacter baumannii): 2 µg/mL (≈ 5.38 µM)
- MIC (Enterobacter sp.): 2 µg/mL (≈ 5.38 µM)
- MIC (Staphylococcus aureus [1]): 2 µg/mL (≈ 5.38 µM)
- MIC (Enterococcus faecium): 2 µg/mL (≈ 5.38 µM)
- MIC (Pseudomonas aeruginosa [2]): 2 µg/mL (≈ 5.38 µM)

From ChEMBL document CHEMBL5241050, “Using membrane perturbing small molecules to target chronic persistent infections” (RSC Med Chem, 2021)
